Experimental data as given in US20050043239A1, “Methods of inhibiting immune responses stimulated by an endogenous factor” (priority 2003, published 2005).
“Also recorded” adds a separate entry of the source.

Assays:
neutrophils [1] = test: Superoxide production by activated neutrophils (WST-1); format: cell-based; conditions: no inhibitor; read-out: agonist concentration representing half-maximal production of superoxide anions
human neutrophils = test: Neutrophil chemotaxis, Transwell assay; format: cell-based; conditions: no inhibitor, read-out: concentration of chemoattractant necessary to support half-maximal migration
Experimental: It is known that distinct signal transduction pathways are utilized by host-derived versus bacteria-produced chemoattractants [Heit, J. Cell Biol., 159:91-102 (2002)]. To determine whether specific chemotactic agents preferentially rely on PI3Kδ in order to promote directed cell migration, the effect of inhibiting PI3Kδ on the ability of neutrophils to undergo chemotaxis was examined using a Transwell™ assay system.
Neutrophil chemotaxis experiments were conducted as described [Roth et al., J. Immunol. Methods, 188:97-116 (1995)]. Briefly, purified human neutrophils were incubated with DMSO (0.3% v/v) or an inhibitor in accordance with the invention reconstituted in DMSO (0.3%) for 20 minutes at room temperature. Cells were added to bare filter inserts (Transwell™ 5 μm pore size; Corning Costar, Cambridge, Mass.), that were placed into wells containing chemoattractants or control medium of a Ultra low 24-well cluster plate, and incubated for 1 hour at 37° C. in a 5% CO2 humidified environment. The number of neutrophils that migrated into the bottom well was determined by FACScan (Becton Dickinson, San Jose, Calif.). Results were expressed as percent neutrophil migration relative to the control (medium without inhibitor).
Dose response curves were generated to determine the concentrations of each chemoattractant, both host and bacterial-derived, necessary to support half-maximal migration. […] Methods, 137:37-46 (1991)].

neutrophils [2] = test: Neutrophil elastase release (exocytosis) assay; format: cell-based; conditions: no inhibitor; read-out: agonist concentration representing half-maximal release of elastase
Experimental: Microtiter assays for the detection of elastase released from purified neutrophils (1.1×10^5 per well in PBS) were performed in the absence or presence of an inhibitor in accordance with the invention or LY294002 on fibrinogen-coated plates [Mulligan, et al., Proc. Natl. Acad. Sci. U.S.A., 90:11523-11527 (1993)]. […] The samples were centrifuged and 90 μl of the supernatant was transferred to another plate containing 10 μl of methoxysuccinyl-alanylalanylprolylvalyl-p-nitroanilide (10 mM, Sigma). Absorbance at 410 nm was measured at one hour as described above. Results are expressed as the percentage elastase activity relative to the control (medium without inhibitor).

Listeria monocytogenes = test: Clearance of systemic Listeria monocytogenes infection; format: in vivo; conditions: for Log colony count/gm spleen tissue in dexamethasone group (2 mg/kg): 72 hours post-infection, Lewis rats
Experimental: Two separate bacterial clearance studies were conducted. […] Colony counts (CFU) per gram of spleen tissues were determined at necropsy, 72 hours post-infection and expressed as the log of the colony count (e.g., 100000 CFU=log 5) per gram of tissue. Colony count measurements provide an indication of the extent of phagocytosis of bacteria by splenic neutrophils and macrophages.

## CCCCC/C=C\C[C@@H](O)/C=C/C=C/C=C\[C@@H](O)CCCC(=O)O [LTB4, leukotriene B4]
Neutrophils [1]
  EC50: 2 nM
Human neutrophils
  EC50: 0.25 nM
Neutrophils [2]
  EC50: 2 nM

## C[C@@H]1C[C@H]2[C@@H]3CCC4=CC(=O)C=C[C@]4(C)[C@@]3(F)[C@@H](O)C[C@]2(C)[C@@]1(O)C(=O)CO [dexamethasone]
Listeria monocytogenes; Clearance Experiment 1, 2 mg/kg BID PO
  Log colony count/gm spleen tissue in dexamethasone group (2 mg/kg): count, >5 log colony count/gm spleen tis
Listeria monocytogenes; Clearance Experiment 2, 2 mg/kg
  Log colony count/gm spleen tissue in dexamethasone group (2 mg/kg): hours, >10 log colony count/gm spleen tis
Listeria monocytogenes; second experiment, dexamethasone 2 mg/kg
  lethality / condition of animals at 72 hours: lethality was observed; also recorded: Moribund at 72

## interleukin 8 [IL-8]
Human neutrophils
  EC50: 0.35 nM

B1: complement factor C5a (protein, UniProt P01031 678-751, looked up)
C5a anaphylatoxin: TLQKKIEEIAAKYKHSVVKKCCYDGACVNNDETCEQRAARISLGPRCIKAFTECCVVASQLRANISHKDMQLGR
modifications: C5a anaphylatoxin
notes: host-derived chemoattractant
Human neutrophils
  EC50: 0.37 nM
